The values below come from patent US20160106439A1, “PNEUMATIC TOURNIQUET” (BIONUMERIK PHARMACEUTICALS, INC., priority 2013, published 2016).

For experiment [1], the target named is T1, Recombinant human ERCC1 (Homo sapiens, UniProt P07992).
T1 construct: 6xHis (N); purchased Creative BioMart; host or cells: E. coli
Put plainly: Tavocept-derived mesna adducts on ERCC1 (trypsin digest, LC-MS). Format: binding. As to conditions: 20 mM Tavocept, LC-MS of tryptic fragments. As for the experimental part: Recombinant human ERCC1 (1 mg; 27.8 nanomoles, Creative BioMart) was reduced using a vast excess of dithiothreitol (DTT, 100 μL of a 500 mM stock) in ammonium bicarbonate (40 mM, pH 8.0) at 37° C. for 75 minutes (total reaction volume was 900 μL). […] Each 800 μL reaction was then chromatographed over a NAP10 column. This step removed unreacted Tavocept and was used for the buffer control simply to ensure that both samples received the same handling/manipulation during the course of the experiment. The elution volume from each NAP10 column was 1.2 mL. […] Trypsin digestion reactions were incubated for 1 hour at 30° C. and then for 17 hours at room temperature (23° C.). Following the Trypsin digest, the samples were lyophilized to dryness overnight and then resuspended in a volume of approximately 100 μL water and analyzed using LC-MS. A Symmetry C18 HPLC column (Waters, Franklin, Mass.; 3.5 μm; 4.6 mm×75 mm) and a Waters Alliance liquid chromatography system (Waters 2695, Franklin, Mass., USA) coupled to a Micromass single quadropole mass detector (Micromass ZMD, Manchester, UK) were used to analyze fragments from trypsin-digested human ERCC1. The mobile phase contained 0.1% of formic acid throughout the run and the flow rate was 0.35 mL/min. […]

The target in experiment [2] is T2, FTase (Homo sapiens, UniProt P49354+P49356).
T2 construct: purchased Abcam
The experiment in a line: FTase-mediated farnesylation of Dansyl-GCVLS peptide. It counts as biochemical.

Experiment [3] concerns the target recombinant human ALK (Homo sapiens, UniProt Q9UM73). The experiment in a line: biochemical. As to conditions: for IC50: IC50 on ALK. The protocol:
The substrate that was phosphorylated by the kinase, polyglutamate-tyrosine (PolyGT), was purchased from Sigma (P0275, lot 120M5007V).
All other reagents were purchased from Sigma Aldrich. A Tecan Ultra microplate reader with XFluor software (Tecan, V4.51) and RdrOle software (Tecan, V4.50) were used in this study.
ALK phosphorylated the polyGT substrate using the ATP cofactor and produced ADP. […] The reactions, in microtubes, were incubated for 60 minutes at 25° C. in a water bath. Following this 60 minute incubation, reactions were transferred to microplates and the kinase activity was evaluated using the ADP-glo system from Promega and monitored, in an endpoint assay, ADP produced when ALK phosphorylated the PolyGT substrate. Various controls were tested and included the assay components indicated in the columns of Table 9 below (where + indicates the component was included and an empty cell indicates it was not included).
Kinase assays were run in triplicate or quadruplicate in microplates. Following this, the ADP-glo detection system (Promega) was used to determine how much ADP had been produced. For 10 μL volume assays, to each microplate well containing 10 μL of kinase reaction was added ADP-glo reagent (10 μL), plates were spun in a table top centrifuge (1000 rpm (123×g) for 1 minute) to ensure no reagent remained on the well walls, and then agitated for 1 minute to ensure optimal mixing. Plates were incubated at 25° C. on a heat block for 40 minutes. Next, kinase detection reagent (20 μL) was added and, as above, centrifugation and agitation was repeated; plates were allowed to incubate at 25° C.±1° C. on a heat block for 40 minutes. Following the incubation of the kinase detection reagent, plates were read on a Tecan Ultra microplate reader. The Tecan Ultra contained a built-in plate definition file for the whole area 96-well white Corning plates but a plate definition file for the half area 96-well Corning plates was created using the RdrOle component of the Tecan Ultra software. For 25 μL volume assays, the procedure was as described above except that the ADP-glo reagent added to the 25 μL assay was 25 μL in volume and the kinase detection reagent was 50 μL in volume.
Therefore, each mole of polymer of 20,000 g/mole would contain approximately 28 moles of the glu-glu-glu-glu-tyr “subpolymer.” Typically, a 10 μL assay would contain […] of the polyGT substrate. […] This was a vast excess of possible tyrosine phosphorylation sites, ensuring that the substrate for phosphorylation was not rate limiting (assuming the higher mass range would produce an even larger excess of glu-glu-glu-glu-tyr “subpolymers”).
Data from ALK assays run on the Tecan Ultra microplate spectrophotometer were collected in Microsoft Excel. Error calculations and graphical representations were performed in Microsoft Office Excel (Microsoft Corporation, Redmond, Wash., USA). Determination of IC25, IC50 and IC75 values were accomplished using Origin Lab software (OriginLab Corporation, Northampton, Mass., USA).

Molecules are shown by their SMILES. “Also recorded” adds a separate entry of the source. Where two headings read alike, the source gives them in different places.

Chain of recombinant human ALK (Q9UM73 1058-1620 limits assumed): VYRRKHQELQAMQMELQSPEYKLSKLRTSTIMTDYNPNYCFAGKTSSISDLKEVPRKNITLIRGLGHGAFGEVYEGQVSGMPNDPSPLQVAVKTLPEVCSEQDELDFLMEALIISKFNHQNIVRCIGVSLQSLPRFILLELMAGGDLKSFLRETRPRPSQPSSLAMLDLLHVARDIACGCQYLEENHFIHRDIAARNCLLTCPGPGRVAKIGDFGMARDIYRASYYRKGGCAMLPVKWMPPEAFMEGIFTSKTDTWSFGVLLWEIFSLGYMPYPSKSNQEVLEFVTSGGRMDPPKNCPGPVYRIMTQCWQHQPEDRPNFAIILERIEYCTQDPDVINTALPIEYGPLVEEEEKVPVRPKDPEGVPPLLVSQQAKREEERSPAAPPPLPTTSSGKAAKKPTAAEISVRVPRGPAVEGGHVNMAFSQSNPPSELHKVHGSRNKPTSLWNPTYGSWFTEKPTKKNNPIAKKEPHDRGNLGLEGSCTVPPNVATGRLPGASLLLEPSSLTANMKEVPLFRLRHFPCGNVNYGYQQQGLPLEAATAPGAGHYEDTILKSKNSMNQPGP
T1 sequence (P07992 whole entry): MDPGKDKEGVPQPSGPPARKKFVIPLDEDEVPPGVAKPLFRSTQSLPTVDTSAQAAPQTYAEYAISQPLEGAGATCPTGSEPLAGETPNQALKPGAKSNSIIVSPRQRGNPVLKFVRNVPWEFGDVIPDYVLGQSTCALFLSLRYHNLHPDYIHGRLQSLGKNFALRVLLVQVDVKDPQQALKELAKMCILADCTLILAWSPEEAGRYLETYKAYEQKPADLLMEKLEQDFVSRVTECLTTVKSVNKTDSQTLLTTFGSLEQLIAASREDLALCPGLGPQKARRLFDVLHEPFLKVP
T2 sequence (P49356 whole entry, one chain of several): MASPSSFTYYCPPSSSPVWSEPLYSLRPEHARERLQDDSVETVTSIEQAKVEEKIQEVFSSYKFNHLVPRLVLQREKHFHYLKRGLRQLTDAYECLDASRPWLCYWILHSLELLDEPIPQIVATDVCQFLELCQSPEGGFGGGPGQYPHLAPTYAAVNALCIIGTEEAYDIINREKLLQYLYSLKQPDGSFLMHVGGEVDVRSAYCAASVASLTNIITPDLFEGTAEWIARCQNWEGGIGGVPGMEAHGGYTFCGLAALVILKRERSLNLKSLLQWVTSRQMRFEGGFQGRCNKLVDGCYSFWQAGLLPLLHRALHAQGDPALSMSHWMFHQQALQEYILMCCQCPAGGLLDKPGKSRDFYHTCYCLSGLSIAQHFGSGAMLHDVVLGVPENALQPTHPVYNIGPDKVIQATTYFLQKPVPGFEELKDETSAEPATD

Turning to `O=S(=O)([O-])CCSSCCS(=O)(=O)[O-].[Na+].[Na+]` [Tavocept, disodium 2,2′-dithio-bis-ethane sulfonate], the “ERCC1 cysteine xenobiotically modified” value in experiment [1] is recorded as “Cys238; also recorded: Cys274”. Besides, the “effect on FTase activity” value in experiment [2] was “Inhibition”. The “greater inhibition of ALK than Crizotinib alone” value in experiment [3] (100 μM ATP, 5 mM Tavocept + 15 nM Crizotinib) is recorded as 16%; in experiment [3] (100 μM ATP, 5 mM Tavocept + 30 nM Crizotinib), 10%; in experiment [3] (100 μM ATP, 10 mM Tavocept + 15 nM Crizotinib) it was 29%; in experiment [3] (100 μM ATP, 10 mM Tavocept + 30 nM Crizotinib), 19%; in experiment [3] (500 μM ATP, 5 mM Tavocept + 30 nM Crizotinib), 11%; in experiment [3] (500 μM ATP, 5 mM Tavocept + 65 nM Crizotinib), 6%. The “greater inhibition of ALK than Crizotinib alone” value in experiment [3] (500 μM ATP, 10 mM Tavocept + 30 nM Crizotinib) is 20%; in experiment [3] (500 μM ATP, 10 mM Tavocept + 65 nM Crizotinib), 6%; in experiment [3] (500 μM ATP, 20 mM Tavocept + 30 nM Crizotinib), 30%; in experiment [3] (500 μM ATP, 20 mM Tavocept + 65 nM Crizotinib), 13%. The IC50 (in general, the concentration that gives 50% inhibition) in experiment [3] (100 μM ATP) was found to be 9.16 ± 2.91 mM; in experiment [3] (500 μM ATP), 20.8 ± 3.49 mM. In addition, the inhibition (in general, the percentage by which the read-out fell short of the control) at 5000 µM in experiment [3] (read-out: greater inhibition of ALK than Crizotinib alone, 100 μM ATP, 5 mM Tavocept + 15 nM Crizotinib) was 16%; in experiment [3] (read-out: greater inhibition of ALK than Crizotinib alone, 100 μM ATP, 5 mM Tavocept + 30 nM Crizotinib), 10%; in experiment [3] (read-out: greater inhibition of ALK than Crizotinib alone, 500 μM ATP, 5 mM Tavocept + 30 nM Crizotinib), 11%; in experiment [3] (read-out: greater inhibition of ALK than Crizotinib alone, 500 μM ATP, 5 mM Tavocept + 65 nM Crizotinib), 6%. Besides, the inhibition at 10000 µM in experiment [3] (read-out: greater inhibition of ALK than Crizotinib alone, 100 μM ATP, 10 mM Tavocept + 15 nM Crizotinib) is 29%; in experiment [3] (read-out: greater inhibition of ALK than Crizotinib alone, 100 μM ATP, 10 mM Tavocept + 30 nM Crizotinib) it was 19%; in experiment [3] (read-out: greater inhibition of ALK than Crizotinib alone, 500 μM ATP, 10 mM Tavocept + 30 nM Crizotinib), 20%; in experiment [3] (read-out: greater inhibition of ALK than Crizotinib alone, 500 μM ATP, 10 mM Tavocept + 65 nM Crizotinib), 6%. The inhibition at 20000 µM turned out to be 30% in experiment [3] (read-out: greater inhibition of ALK than Crizotinib alone, 500 μM ATP, 20 mM Tavocept + 30 nM Crizotinib) and 13% in experiment [3] (read-out: greater inhibition of ALK than Crizotinib alone, 500 μM ATP, 20 mM Tavocept + 65 nM Crizotinib).
